Assay results from the supplement of paper PMC10307832.

Columns and labels:
Assay in all cases: relative viability (nuclei count vs DMSO), 5 days (fraction); higher = more cells survive
Crizotinib + Navitoclax = compound: C[C@@H](Oc1cc(-c2cnn(C3CCNCC3)c2)cnc1N)c1c(Cl)ccc(F)c1Cl [Crizotinib] + CC1(C)CCC(c2ccc(Cl)cc2)=C(CN2CCN(c3ccc(C(=O)NS(=O)(=O)c4ccc(N[C@H](CCN5CCOCC5)CSc5ccccc5)c(S(=O)(=O)C(F)(F)F)c4)cc3)CC2)C1 [Navitoclax] (partner 0.5 µM)
Procedure, shortened: (§1)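 Nuclei were stained with Hoechst during a one-step fixation (final 0.05% Triton X-100, 1% formaldehyde, 1 ug/ml Hoechst) carried out 5 days after dosing, then counted on 4× images. The cells, lung cancer lines in 1536-well plates, had been dosed by pin tool the day after seeding with one drug alone or a fixed anchor-drug dose plus five library-drug doses (not always all listed) in √10 steps. Relative viability is the nuclei count in treated wells divided by that in vehicle wells, and each value is the median of duplicate plates.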

Carfilzomib + Decitabine = compound: CC(C)C[C@H](NC(=O)[C@H](CCc1ccccc1)NC(=O)CN1CCOCC1)C(=O)N[C@@H](Cc1ccccc1)C(=O)N[C@@H](CC(C)C)C(=O)[C@@]1(C)CO1 [Carfilzomib] + Nc1ncn([C@H]2C[C@H](O)[C@@H](CO)O2)c(=O)n1 [Decitabine] (partner 2 µM)
Procedure, shortened: as §1

Carfilzomib + Pictilisib = compound: CC(C)C[C@H](NC(=O)[C@H](CCc1ccccc1)NC(=O)CN1CCOCC1)C(=O)N[C@@H](Cc1ccccc1)C(=O)N[C@@H](CC(C)C)C(=O)[C@@]1(C)CO1 [Carfilzomib] + CS(=O)(=O)N1CCN(Cc2cc3nc(-c4cccc5[nH]ncc45)nc(N4CCOCC4)c3s2)CC1 [Pictilisib] (partner 1 µM)
Procedure, shortened: as §1

Olaparib + Luminespib = compound: O=C(c1cc(Cc2n[nH]c(=O)c3ccccc23)ccc1F)N1CCN(C(=O)C2CC2)CC1 [Olaparib] + CCNC(=O)c1noc(-c2cc(C(C)C)c(O)cc2O)c1-c1ccc(CN2CCOCC2)cc1 [Luminespib] (partner 0.01 µM)
Procedure, shortened: as §1

Cell Line | relative viability (Crizotinib + Navitoclax; first compound 0.01 µM) | relative viability (Crizotinib + Navitoclax; first compound 0.03162 µM) | relative viability (Crizotinib + Navitoclax; first compound 0.1 µM) | relative viability (Crizotinib + Navitoclax; first compound 0.3162 µM) | relative viability (Crizotinib + Navitoclax; first compound 1 µM) | relative viability (Carfilzomib + Decitabine; first compound 0.003162 µM) | relative viability (Carfilzomib + Decitabine; first compound 0.01 µM) | relative viability (Carfilzomib + Decitabine; first compound 0.03162 µM) | relative viability (Carfilzomib + Decitabine; first compound 0.1 µM) | relative viability (Carfilzomib + Pictilisib; first compound 0.001 µM) | relative viability (Carfilzomib + Pictilisib; first compound 0.003162 µM) | relative viability (Carfilzomib + Pictilisib; first compound 0.01 µM) | relative viability (Carfilzomib + Pictilisib; first compound 0.03162 µM) | relative viability (Carfilzomib + Pictilisib; first compound 0.1 µM) | relative viability (Olaparib + Luminespib; first compound 0.08 µM) | relative viability (Olaparib + Luminespib; first compound 0.253 µM) | relative viability (Olaparib + Luminespib; first compound 2.53 µM) | relative viability (Olaparib + Luminespib; first compound 8 µM) | relative viability (Carfilzomib + Decitabine; first compound 0.001 µM)
NCI-H1792 | 0.629 | 0.679 | 0.745 | 0.398 | 0.577 | 0.592 | 0.619 | 0.542 | 0.207 | 0.291 | 0.313 | 0.282 | 0.24 | 0.199 | 0.484 | 0.359 | 0.409 | 0.425 | –
NCI-H1915 | 0.694 | 0.782 | 0.818 | – | 0.801 | 0.296 | 0.24 | 0.259 | 0.106 | 0.973 | 1 | 0.8 | 0.572 | 0.123 | 0.685 | 0.575 | 0.408 | 0.387 | 0.257
NCI-H1944 | 1.01 | 0.995 | 1 | 1.03 | 1.05 | 0.447 | 0.449 | 0.453 | 0.234 | 0.353 | 0.344 | 0.322 | 0.3 | 0.247 | 0.741 | 0.625 | 0.534 | 0.534 | 0.405
NCI-H1975 | 0.965 | 1.06 | 1.03 | 1.26 | 1.06 | 0.451 | 0.365 | 0.132 | 0.147 | 0.284 | 0.301 | 0.219 | 0.0929 | 0.101 | 0.169 | 0.174 | 0.258 | 0.234 | 0.378
NCI-H1993 | 0.769 | 0.897 | 0.669 | 0.831 | 0.805 | 0.589 | 0.658 | 0.541 | 0.461 | 0.756 | 0.771 | 0.717 | 0.648 | 0.61 | 0.87 | 0.842 | 0.78 | 1.04 | 0.542
NCI-H2009 | 1.1 | 1.16 | 1.17 | 1.21 | 1.22 | 0.391 | 0.401 | 0.268 | 0.0605 | 0.859 | 1.07 | 0.753 | 0.126 | 0.0415 | 1.13 | 0.966 | 0.893 | 0.701 | 0.401
NCI-H2023 | 0.98 | 0.985 | 0.994 | 0.932 | – | 0.23 | 0.173 | 0.203 | 0.0666 | 0.213 | 0.257 | 0.263 | 0.156 | 0.0927 | 0.647 | 0.724 | 0.629 | 0.379 | 0.184
NCI-H2085 | 1.02 | 1.09 | 1.03 | 1.07 | 1.2 | 0.608 | 0.584 | 0.421 | 0.297 | 0.443 | 0.45 | 0.48 | 0.306 | 0.269 | 0.499 | 0.381 | 0.427 | 0.437 | 0.589
